Bridge positions count the residues as written; N and C are the ends. Ends that are not written are not given here. * marks the point of attachment. Biotin = O=C1N[C@H]2[C@H](CS[C@H]2CCCCC(=O)*)N1
Assays:
[1] = test system: rat snake TRPA1 (rsTRPA1); details: ref Banzawa et al., 2014; McNamara et al., 2007; cited from earlier work
[2] = target: T1, hTRPA1 (Homo sapiens, UniProt O75762); format: cell-based; details: human TRPA1-transfected HEK cells, whole-cell; mean ± SEM; p < 0.05 unpaired two-tailed t-test
T1 sequence (O75762 whole entry): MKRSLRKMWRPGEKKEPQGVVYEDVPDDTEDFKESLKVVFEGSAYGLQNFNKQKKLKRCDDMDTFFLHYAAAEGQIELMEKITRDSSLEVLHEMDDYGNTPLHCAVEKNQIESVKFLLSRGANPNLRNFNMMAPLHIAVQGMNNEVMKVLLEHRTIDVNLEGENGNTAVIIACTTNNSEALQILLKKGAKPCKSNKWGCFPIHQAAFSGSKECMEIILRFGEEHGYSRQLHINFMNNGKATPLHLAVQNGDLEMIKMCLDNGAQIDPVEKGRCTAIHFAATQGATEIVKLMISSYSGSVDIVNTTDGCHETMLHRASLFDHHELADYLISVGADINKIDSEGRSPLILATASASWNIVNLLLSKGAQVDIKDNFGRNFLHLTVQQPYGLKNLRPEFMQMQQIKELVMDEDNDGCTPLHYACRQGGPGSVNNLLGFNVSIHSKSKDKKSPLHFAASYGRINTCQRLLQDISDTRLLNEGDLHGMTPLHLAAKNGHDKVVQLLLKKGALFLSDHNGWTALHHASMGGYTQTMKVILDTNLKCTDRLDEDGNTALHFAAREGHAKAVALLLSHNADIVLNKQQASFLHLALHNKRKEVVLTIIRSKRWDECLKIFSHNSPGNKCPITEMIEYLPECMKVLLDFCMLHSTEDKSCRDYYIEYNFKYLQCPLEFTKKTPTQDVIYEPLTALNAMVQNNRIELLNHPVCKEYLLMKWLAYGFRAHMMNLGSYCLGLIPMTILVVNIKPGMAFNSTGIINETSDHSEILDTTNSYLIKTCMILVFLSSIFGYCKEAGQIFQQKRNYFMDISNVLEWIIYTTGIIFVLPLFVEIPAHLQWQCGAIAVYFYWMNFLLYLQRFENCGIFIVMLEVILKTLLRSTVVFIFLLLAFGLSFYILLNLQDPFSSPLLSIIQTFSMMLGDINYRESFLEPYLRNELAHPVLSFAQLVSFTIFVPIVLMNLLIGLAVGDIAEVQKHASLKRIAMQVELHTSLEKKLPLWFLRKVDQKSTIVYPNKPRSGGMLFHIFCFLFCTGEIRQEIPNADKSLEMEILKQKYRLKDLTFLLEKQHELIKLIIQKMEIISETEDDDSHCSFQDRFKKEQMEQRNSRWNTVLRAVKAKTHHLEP

[3] = test system: mouse hindpaw; details: for Acute nocifensive behavior in capsaicin-ablated animals: intrathecally capsaicin ablated mice
[4] = target: T1, hTRPA1; assay: Single-channel cell-attached and excised-patch recordings of TRPA1 in HEK cells; format: cell-based; details: for Effect on divalent over monovalent cation selectivity: excised patches, AITC 50 μM, n = 3–7 patches/condition; for Effect on divalent over monovalent cation selectivity / Duration of evoked channel openings / Average latency to first channel opening: WaTx 100 nM; for Duration of evoked channel openings / Average latency to first channel opening: inside-out patches, AITC 10 μM; for Duration of evoked channel openings: Vh = −40 mV, n = 6–8 patches/treatment; for Average latency to first channel opening: n = 13–14 patches/treatment
[5] = test system: mouse hindpaw; assay: Thermal; format: in vivo; details: for Mechanical hypersensitivity in capsaicin-ablated animals: intrathecally capsaicin ablated mice, n = 6–8 mice/treatment; for Hypersensitivity to thermal and mechanical stimuli: wild-type mice, intraplantar injection
[6] = test system: cultured rat trigeminal neurons; assay: CGRP release ELISA from cultured trigeminal neurons; format: cell-based; details: WaTx 10 μM
[7] = test system: mouse hindpaw; assay: Neurogenic inflammation: paw edema and Evan's Blue Dye extravasation; format: in vivo; details: intrathecally capsaicin ablated mice; AITC 0.75% v/v
[8] = test system: trigeminal sensory neurons; assay: Ca2+ imaging of cultured mouse trigeminal sensory neurons; format: cell-based
[9] = test system: human TRPA1; format: cell-based; details: WaTx 1 μM, whole-cell, n = 3–9 cells/construct
[10] = test system: rat snake TRPA1 (rsTRPA1); assay: Whole-cell patch-clamp recordings of rat snake TRPA1 in transfected HEK cells; format: cell-based, Texas rat snake (Elaphe obsoleta lindheimeri)
[11] = target: T1, hTRPA1; format: binding; details: wild-type hTRPA1-transfected HEK293 membranes
[12] = test system: rsTRPA1; format: binding, Texas rat snake (Elaphe obsoleta lindheimeri); details: gain-of-function mutant A627P
[13] = target: human TRPA1, full-length wild type (human, UniProt O75762 1-1119); assay: BLI
Chain of human TRPA1, full-length wild type (O75762 whole entry): as above

## CC(C)c1ccc(NC(=O)Cn2cnc3c2c(=O)n(C)c(=O)n3C)cc1 [HC 030031]
[1]
  Inhibitor effectiveness against rsTRPA1: effective

## C=CCN=C=S [AITC, allyl isothiocyanate, reference compound]
[2]
  τoff (reversal of membrane currents upon washout): 27 ± 5 s
[3]
  Acute nocifensive behavior in capsaicin-ablated animals: not acute nocifensive behavior
[4]
  Effect on divalent over monovalent cation selectivity: small but significant increase in divalent cation selectivity
  Duration of evoked channel openings: ≤ 5 ms
  Average latency to first channel opening: dramatically shortened
[5]
  Mechanical hypersensitivity in capsaicin-ablated animals: developed mechanical hypersensitivity (albeit with a delayed onset)
  Hypersensitivity to thermal and mechanical stimuli: substantial and long-lasting hypersensitivity
[6]; 2mM extracellular Ca2+, AITC 100 μM, 5 min at RT
  CGRP release, physiological extracellular Ca2+: promoted robust CGRP release
[7]
  Paw swelling in capsaicin-ablated animals: produced swelling

## CCC(=N\O)/C(C)=C/c1ccc(F)cc1 [A 967079]
[1]
  Inhibitor effectiveness against rsTRPA1: ineffective

## WaTx (Biotin-GSGSASPQQAKYCYEQCNVNKVPFDQCYQMCSPLERS; disulfide 13-31, 17-27; not fully specified)
[8]; WaTx 5 μM, TRPA1−/− mouse trigeminal neuron cultures
  Effect on neurons from TRPA1-deficient animals: no effect
[8]; saturating dose 5μM WaTx, AITC 50μM
  Selectivity of neuron excitation, wild-type mice: excited only the cohort sensitive to a selective dose of AITC
[2]
  τoff (reversal of membrane currents upon washout): 4.6 ± 1.2 s
[9]
  Toxin sensitivity of hTRPA1 mutants P622A, M634L, T646P: abrogated toxin sensitivity
[3]; 20 μL intraplantar to hindpaw, wild-type mice, scored 20 min
  Nocifensive (pain-related) behavior: vigorous, dose-dependent nocifensive (pain-related) behavior
[3]; TRPA1−/− mice
  Nocifensive and c-Fos responses in TRPA1-deficient mice: not observed
[3]; after hindpaw injection, wild-type mice, n = 22–39 sections/group
  c-Fos immunoreactivity in superficial laminae of spinal cord dorsal horn: induction of c-Fos immunoreactivity
[3]
  Acute nocifensive behavior in capsaicin-ablated animals: lacked acute nocifensive behavior
[10]; WaTx 5 μM, whole-cell
  Toxin sensitivity of rsTRPA1 A627P: sufficient to confer toxin sensitivity
[10]; whole-cell patch clamp, n = 4–12 HEK cells/condition
  Sensitivity of rat snake TRPA1 to toxin: insensitive
[11]
  Binding of hTRPA1 membranes: Robust binding
[12]
  Binding of rsTRPA1 A627P membranes: did display binding
[4]; cell-attached HEK cell patches, n = 12
  Activation of channels in cell-attached mode: WaTx-evoked responses in the on-cell patch configuration
[4]; excised outside-out / inside-out patches, bath application
  Activation of channels in excised patches: activity was observed in either configuration
[4]
  Effect on divalent over monovalent cation selectivity: largely abolished
  Duration of evoked channel openings: ≤ 20 ms
  Average latency to first channel opening: indistinguishable from that of basal, spontaneous events
[5]
  Mechanical hypersensitivity in capsaicin-ablated animals: failed to exhibit any signs of mechanical hypersensitivity
  Hypersensitivity to thermal and mechanical stimuli: substantial and long-lasting hypersensitivity
[6]; 20mM extracellular Ca2+ (10-fold)
  CGRP release, raised extracellular Ca2+: able to promote CGRP release

B1: Biotin-GSGS-WaTx (N-terminal biotinylated Wasabi Receptor Toxin) (peptide)
peptide: GSGSASPQQAKYCYEQCNVNKVPFDQCYQMCSPLERS
modifications: biotin on the N-terminus; directed disulfide bonds C9-C27 and C13-C23 (WaTx numbering)
[13]
  Kd: 0.33 pM
  koff: 7.13e-06 s⁻¹
